Usually IC50 stands for the concentration at which inhibition is half-maximal. The inhibition is the percentage by which the read-out fell short of the control.

SMILES strings stand for the structures. Where two headings read alike, the source gives them in different places.

Here are results for one molecule from article PMC6774072, “Azologization and repurposing of a hetero-stilbene-based kinase inhibitor: towards the design of photoswitchable sirtuin inhibitors” (Beilstein Journal of Organic Chemistry, 2019).

Holding throughout (test): fluorescence-based deacetylase assay with Z-Lys(acetyl)-AMC (ZMAL) substrate
Common to all, as to assay type: biochemical

Assay [1] has as its target T1, Sirt2 (Homo sapiens, UniProt Q8IXJ6).
T1 construct: Sirt2_56−356; made in house
T1 sequence (Q8IXJ6 56-356): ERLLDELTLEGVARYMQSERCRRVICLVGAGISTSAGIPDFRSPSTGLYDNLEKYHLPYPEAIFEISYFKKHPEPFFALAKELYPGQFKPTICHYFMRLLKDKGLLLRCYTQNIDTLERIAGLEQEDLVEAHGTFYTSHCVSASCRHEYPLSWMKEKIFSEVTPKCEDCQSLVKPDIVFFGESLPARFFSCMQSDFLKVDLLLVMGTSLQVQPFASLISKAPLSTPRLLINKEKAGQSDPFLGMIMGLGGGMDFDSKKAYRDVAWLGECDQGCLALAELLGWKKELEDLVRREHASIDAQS
The conditions noted are these: read-out: Sirt2 inhibition IC50. The method, then: (§1) The influence on deacetylase activity of three human sirtuin isoforms (Sirt1–3) was determined in a fluorescence-based assay, using Z-Lys(acetyl)-AMC (ZMAL) as a substrate. Compared to the lead structure 2a, all compounds except 2e–h show increased inhibitory activity against Sirt2 (Table 1). […] Moreover, a slight increase in selectivity for Sirt2 and Sirt3 over Sirt1 could be observed for 2c, 4a and 4b. […] Though not photoswitchable, compounds 4a and 4b were synthesized to test the influence of a rigid conformation around the C=C double bond on sirtuin inhibition. […] A recently developed fluorescence polarization (FP)-based assay enables mapping of ligand binding to this specific binding site. For 2a an interaction with the selectivity pocket was already implied in the same work. Additionally performed docking studies proposed a binding mode in which 2a mimics the nicotinamide residue of NAD^+, whereas aromatic amino acid residues of the selectivity pocket stabilize the dimethylphenol ring. As photoisomerization in stilbenes and azo dyes is accompanied by a perpendicular twist of the phenyl ring towards the former molecular plane, we assumed that this conformational change should provoke a differential binding situation at least for the dimethylphenol residue in 2a. Unfortunately, binding of 2b and c could not be localised in the vicinity of the selectivity pocket of Sirt2, so that the binding pose remains unclear.
(§2) The photoswitchable diazeno compound 11 was subjected to biological evaluation to test the effect of photoisomerization on the inhibitory activity. The enzyme assay mixture containing 11 was exposed to 5 minutes of 365 nm radiation and compared with the results of a non-irradiated measurement. […] Unfortunately, 365 nm radiation turned out to have only minor effects on the IC50 values of 11 (Table 3).
(§3) Cloning, expression and purification of recombinant proteins: Expression and purification of Sirt1_133-747, Sirt2_56−356, and Sirt3_118−395 was carried out as described previously. Identity and purity were verified by SDS-PAGE [65]. Protein concentration was determined by the Bradford assay.
(§4) Bioassay: The inhibitory effect of compounds 2a–h, 4a/b, 8a and 11 on Sirt1–3 was detected via a previously reported fluorescence based assay. The synthetic substrate Z-Lys(acetyl)-AMC (ZMAL) is deacetylated by sirtuins, followed by tryptic digestion and thereby release of […], leading to a fluorescent readout. Inhibition was determined by comparing percentage substrate conversion to a DMSO control after subtraction of the blank fluorescence signal. All compounds were tested at 100 µM, 50 µM and 10 µM, respectively. […] IC50 values were calculated with OriginPro 9.0 G using a non-linear regression to fit the dose response curve. An enzyme-free blank control and a 100% conversion control using AMC instead of ZMAL were measured as well. Inhibition measurements were performed in biological duplicates for all compounds.

Assay [2] deals with T2, Sirt3 (Homo sapiens, UniProt Q9NTG7).
T2 construct: Sirt3_118−395; made in house
T2 sequence (Q9NTG7 118-395): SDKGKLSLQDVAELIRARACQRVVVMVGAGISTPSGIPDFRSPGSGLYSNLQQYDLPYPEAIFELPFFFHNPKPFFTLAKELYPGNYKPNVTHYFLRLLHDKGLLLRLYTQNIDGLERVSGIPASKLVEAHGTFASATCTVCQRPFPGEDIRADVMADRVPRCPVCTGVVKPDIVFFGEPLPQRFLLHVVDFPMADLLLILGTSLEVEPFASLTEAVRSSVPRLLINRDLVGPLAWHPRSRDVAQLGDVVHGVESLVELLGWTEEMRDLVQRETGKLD
The conditions noted are these: read-out: Sirt3 inhibition IC50. As for the experimental part: as §1, §2, §3, §4

For assay [3], the target named is T3, Sirt1 (Homo sapiens, UniProt Q96EB6).
T3 construct: Expression and purification of Sirt1_133-747; made in house
T3 sequence (Q96EB6 133-747): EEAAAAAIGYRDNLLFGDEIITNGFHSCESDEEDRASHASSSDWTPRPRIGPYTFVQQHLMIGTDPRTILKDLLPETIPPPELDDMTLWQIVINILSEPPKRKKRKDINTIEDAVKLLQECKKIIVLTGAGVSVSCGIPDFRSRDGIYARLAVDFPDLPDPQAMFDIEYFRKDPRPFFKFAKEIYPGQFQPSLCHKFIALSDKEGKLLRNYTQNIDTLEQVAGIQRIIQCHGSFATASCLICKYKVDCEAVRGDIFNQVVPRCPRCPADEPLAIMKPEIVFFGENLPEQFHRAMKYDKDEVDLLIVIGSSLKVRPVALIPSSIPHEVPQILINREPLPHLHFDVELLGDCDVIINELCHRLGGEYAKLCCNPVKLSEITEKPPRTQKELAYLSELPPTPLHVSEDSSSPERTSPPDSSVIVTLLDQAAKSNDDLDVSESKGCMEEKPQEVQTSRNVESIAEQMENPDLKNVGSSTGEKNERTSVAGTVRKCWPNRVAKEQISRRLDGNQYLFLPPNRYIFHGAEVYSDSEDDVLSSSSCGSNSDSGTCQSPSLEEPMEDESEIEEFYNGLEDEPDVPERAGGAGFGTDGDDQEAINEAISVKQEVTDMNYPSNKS
Particulars: @ 100 µM. As for the experimental part: as §1, §2, §3, §4

Where [4] appears, read: photostationary state (PSS) after 5 minutes of 365 nm irradiation.
Setting [5] is: thermal equilibrium (∆), non-irradiated.

With `NC(=O)c1cncc(N=Nc2ccc(F)cc2)c1` [Compound 11, 5-[(4-Fluorophenyl)diazenyl]nicotinamide], the IC50 in assay [1] (setting [4]) came to 24.1 ± 1.69 µM; in assay [1] (setting [5]), 18.9 ± 1.38 µM; in assay [2] (setting [4]), 29.9 ± 2.11 µM; in assay [2] (setting [5]) it was 27.5 ± 3.42 µM. The inhibition at 100 µM in assay [3] (setting [4]) turned out to be 19%; in assay [3] (setting [5]), 35%.
